According to PubChem BioAssay AID1919007 (Molecular Pharmacology Branch, DTP, NCI, 2023):

Tested on: A498 complex spheroids with HUVEC/MSC, growth
Assay: Anticancer human tumor A498 cell line growth inhibition [AhR];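 further: seven day exposure starting three days after spheroid seeding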;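 on viability, T/C: luminescence signal used as a surrogate for viable cells; luminescence viability scaled so 100% equals DMSO vehicle wells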
Conditions: for IC50: curve of first compound; for viability, T/C: stronger effect = lower value
Procedure, shortened: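 Spheroids combined tumor cells with HUVEC endothelial cells and human MSCs as stroma. AhR antagonists were paired with standard or investigational drugs, each dosed in half-log steps down from near clinical Cmax, or from 10 microM where Cmax was unknown.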

[1] = second compound 0.1 µM, first compound 0.00316 µM
[2] = second compound 0.1 µM, first compound 0.01 µM
[3] = second compound 0.1 µM, first compound 0.0316 µM
[4] = second compound 0.1 µM, first compound 0.1 µM
[5] = second compound 0.316 µM, first compound 0.00316 µM
[6] = second compound 0.316 µM, first compound 0.01 µM
[7] = second compound 0.316 µM, first compound 0.0316 µM
[8] = second compound 0.316 µM, first compound 0.1 µM
[9] = second compound 1 µM, first compound 0.00316 µM
[10] = second compound 1 µM, first compound 0.01 µM
[11] = second compound 1 µM, first compound 0.0316 µM
[12] = second compound 1 µM, first compound 0.1 µM
[13] = second compound 3.16 µM, first compound 0.00316 µM
[14] = second compound 3.16 µM, first compound 0.01 µM
[15] = second compound 3.16 µM, first compound 0.0316 µM
[16] = second compound 3.16 µM, first compound 0.1 µM
[17] = second compound 10 µM, first compound 0.00316 µM
[18] = second compound 10 µM, first compound 0.01 µM
[19] = second compound 10 µM, first compound 0.0316 µM
[20] = second compound 10 µM, first compound 0.1 µM
[21] = second compound 0.1 µM, first compound 0.316 µM
[22] = second compound 0.1 µM, first compound 1 µM
[23] = second compound 0.1 µM, first compound 3.16 µM
[24] = second compound 0.1 µM, first compound 10 µM
[25] = second compound 0.316 µM, first compound 0.316 µM
[26] = second compound 0.316 µM, first compound 1 µM
[27] = second compound 0.316 µM, first compound 3.16 µM
[28] = second compound 0.316 µM, first compound 10 µM
[29] = second compound 1 µM, first compound 0.316 µM
[30] = second compound 1 µM, first compound 1 µM
[31] = second compound 1 µM, first compound 3.16 µM
[32] = second compound 1 µM, first compound 10 µM
[33] = second compound 3.16 µM, first compound 0.316 µM
[34] = second compound 3.16 µM, first compound 1 µM
[35] = second compound 3.16 µM, first compound 3.16 µM
[36] = second compound 3.16 µM, first compound 10 µM
[37] = second compound 10 µM, first compound 0.316 µM
[38] = second compound 10 µM, first compound 1 µM
[39] = second compound 10 µM, first compound 3.16 µM
[40] = second compound 10 µM, first compound 10 µM

Row | Compound | IC50 (second compound 0.1 µM) [nM] | IC50 (second compound 0.316 µM) [nM] | IC50 (second compound 1 µM) [nM] | IC50 (second compound 3.16 µM) [nM] | IC50 (second compound 10 µM) [nM] | viability, T/C [3] [%] | viability, T/C [4] [%] | viability, T/C [7] [%] | viability, T/C [8] [%] | viability, T/C [11] [%] | viability, T/C [12] [%] | viability, T/C [15] [%] | viability, T/C [16] [%] | viability, T/C [19] [%] | viability, T/C [20] [%] | viability, T/C [21] [%] | viability, T/C [22] [%] | viability, T/C [25] [%] | viability, T/C [26] [%] | viability, T/C [29] [%] | further results
1 | CC[C@@]1(O)C(=O)OCc2c1cc1n(c2=O)Cc2cc3c(CN(C)C)c(O)ccc3nc2-1 + Cc1cncc(-c2nc(NCCc3c[nH]c4ccccc34)c3ncn(C(C)C)c3n2)c1 | > 100 | > 100 | > 100 | > 100 | < 0.316 | 72.9 | 69.8 | 83.3 | 72.9 | 77 | 66.6 | 56.5 | 53.1 | 6.79 | 8.73 |  |  |  |  |  | viability, T/C (second compound 0.1 µM, first compound 0.000316 µM): 87.4%; viability, T/C (second compound 0.1 µM, first compound 0.001 µM): 92.5%; viability, T/C [1]: 90.1%; viability, T/C [2]: 84.7%; viability, T/C (second compound 0.316 µM, first compound 0.000316 µM): 88.7%; viability, T/C (second compound 0.316 µM, first compound 0.001 µM): 92.2%; viability, T/C [5]: 91.1%; viability, T/C [6]: 83.1%; viability, T/C (second compound 1 µM, first compound 0.000316 µM): 89.2%; viability, T/C (second compound 1 µM, first compound 0.001 µM): 92.5%; viability, T/C [9]: 98.3%; viability, T/C [10]: 76.5%; viability, T/C (second compound 3.16 µM, first compound 0.000316 µM): 61.4%; viability, T/C (second compound 3.16 µM, first compound 0.001 µM): 72.9%; viability, T/C [13]: 65.8%; viability, T/C [14]: 60.5%; viability, T/C (second compound 10 µM, first compound 0.000316 µM): 4.54%; viability, T/C (second compound 10 µM, first compound 0.001 µM): 6%; viability, T/C [17]: 7.18%; viability, T/C [18]: 5.32%
2 | COc1cc(C2c3cc4c(cc3C(OC3OC5COC(C)OC5C(O)C3O)C3COC(=O)C23)OCO4)cc(OC)c1O (stereo not given) + Cc1cncc(-c2nc(NCCc3c[nH]c4ccccc34)c3ncn(C(C)C)c3n2)c1 | > 10000 | > 10000 | > 10000 | 3640 | < 31.6 | 79.4 | 73 | 83.7 | 76.6 | 79.8 | 74 | 61.4 | 63.6 | 3.97 | 4.03 | 73.3 | 68.1 | 79.9 | 69 | 74.4 | viability, T/C [23]: 62.4%; viability, T/C [24]: 52.2%; viability, T/C [27]: 59.9%; viability, T/C [28]: 59%; viability, T/C [30]: 60.5%; viability, T/C [31]: 56.3%; viability, T/C [32]: 50.1%; viability, T/C [33]: 66.9%; viability, T/C [34]: 56.8%; viability, T/C [35]: 47.1%; viability, T/C [36]: 43.2%; viability, T/C [37]: 4.95%; viability, T/C [38]: 4.99%; viability, T/C [39]: 5.98%; viability, T/C [40]: 6.6%
3 | COc1cccc2c1C(=O)c1c(O)c3c(c(O)c1C2=O)CC(O)(C(=O)CO)CC3OC1CC(N)C(O)C(C)O1 (stereo not given) + Cc1cncc(-c2nc(NCCc3c[nH]c4ccccc34)c3ncn(C(C)C)c3n2)c1 | 266 | 380 | 175 | < 31.6 | < 31.6 | 64.7 | 57.1 | 61.1 | 65.6 | 58.6 | 55.9 | 48.8 | 50.7 | 5.86 | 6.1 | 48.8 | 20.3 | 56.3 | 15.4 | 43.1 | viability, T/C [23]: 1.26%; viability, T/C [24]: 0.76%; viability, T/C [27]: 1.1%; viability, T/C [28]: 0.72%; viability, T/C [30]: 10.3%; viability, T/C [31]: 1.14%; viability, T/C [32]: 0.7%; viability, T/C [33]: 37.7%; viability, T/C [34]: 2.21%; viability, T/C [35]: 1.26%; viability, T/C [36]: 0.84%; viability, T/C [37]: 9.17%; viability, T/C [38]: 0.29%; viability, T/C [39]: 0.94%; viability, T/C [40]: 0.55%
4 | Nc1ncn(C2CC(O)C(CO)O2)c(=O)n1 (stereo not given) + Cc1cncc(-c2nc(NCCc3c[nH]c4ccccc34)c3ncn(C(C)C)c3n2)c1 | > 1000 | > 1000 | > 1000 | > 1000 | < 3.16 | 88.5 | 85.4 | 92.5 | 88.5 | 85 | 79.8 | 71.1 | 60.6 | 6.07 | 3.94 | 75 | 70.1 | 83.2 | 81.9 | 81 | viability, T/C [1]: 83.2%; viability, T/C [2]: 93.2%; viability, T/C [5]: 90.3%; viability, T/C [6]: 94.5%; viability, T/C [9]: 85.4%; viability, T/C [10]: 86.4%; viability, T/C [30]: 76%; viability, T/C [13]: 61.5%; viability, T/C [14]: 65.8%; viability, T/C [33]: 62.8%; viability, T/C [34]: 63.4%; viability, T/C [17]: 4.02%; viability, T/C [18]: 3.97%; viability, T/C [37]: 4.34%; viability, T/C [38]: 4.63%
